We go through 14 compounds from patent US9192621B2, “Esters and malonates of SATE prodrugs” (IDENIX PHARMACEUTICALS LLC, priority 2012, dated 2015).

Series [1] is described as follows: Cytotoxicity evaluation, CellTiter-Blue Cell Viability Assay. Type of series: cell-based. To be noted: human, Zluc cells (HCV replicon cells).
Series [2] has as its system HCV genotype 1b replicon. As to the kind of experiment: HCV replicon assay (luciferase reporter, Zluc cells). The class given is cell-based. To be noted: Huh-7-derived Zluc cells, 72 hours of incubation. In general terms: Replicon systems follow genome replication, usually without infectious particles.
The test system of series [3] is Zluc cells. Briefly: Cytotoxicity evaluation, CellTiter-Blue Cell Viability Assay. Type of series: cell-based. To be noted: read-out: HCV Replicon CC50.
Series [4] is described as follows: Stability in simulated gastric and intestinal fluids. Type of series: in vitro ADME. To be noted: 100 μM, 2 hours at 37° C., percent of the peak area observed at time zero. As to the method:
Stability in simulated gastric and intestinal fluids: Simulated gastric and intestinal fluids containing pepsin and pancreatin respectively were prepared according to the U.S. Pharmacopoeia USP291 procedure (www.pharmacopeia.cn/v29240/usp29nf24s0_ris1s126.html). Test compound (final concentration 100 μM) was incubated in duplicate in the appropriate fluid for 2 hours at 37° C. The samples were quenched with 200 μl cold acetonitrile, vortexed for 30 seconds and then centrifuged at 16,100 g for 10 min. The supernatants were analyzed by HPLC on a C-18 column with UV detection at 252 nm. The time 0 samples were prepared by adding SGF or SIF fluid to the quenching solvent followed by the test compound. Stability of the compound was determined by peak area for the test compound after incubation and calculated as percent of the peak area observed at time zero.

The term CC50 denotes the concentration at which the toxic effect on the cells reaches its halfway point. One may read the EC50 as the concentration at which the effect is half-maximal. `CC(=O)OCC(C)(C)C(=O)SCCOP(=O)(NCc1ccccc1)OCC1O[C@@H](n2cnc3c(=O)[nH]c(N)nc32)[C@](C)(O)[C@@H]1O` (stereo partly drawn) [Compound 106] gave a cytotoxic concentration (CC50) at 72 h in series [1] of at most 50 µM. For the same compound, the EC50 in series [2] (Hepatitis C virus) is at most 0.25 µM. On the same counts, the results for `CCOc1nc(N)nc2c1ncn2[C@@H]1O[C@H](COP(=O)(NCc2ccccc2)OCCSC(=O)C(C)(C)C(=O)OC(C)C)[C@@H](O)[C@@]1(C)F` (stereo partly drawn) [Compound 105] are over 50 µM and at most 0.25 µM. In the same order, the values of `CCOc1nc(N)nc2c1ncn2[C@@H]1O[C@H](COP(=O)(NCc2ccccc2)OCCSC(=O)C(C)(C)C(=O)OC(C)C)[C@@H](O)[C@@]1(C)F` (single isomer, unassigned) [Compound 105 Diastereomer 1] are over 50 µM and at most 0.25 µM. As for `CCOc1nc(N)nc2c1ncn2[C@@H]1O[C@H](COP(=O)(NCc2ccccc2)OCCSC(=O)C(C)(C)C(=O)OC(C)C)[C@@H](O)[C@@]1(C)F` (single isomer, unassigned) [Compound 105 Diastereomer 2], the CC50 in series [3] is over 50 µM. Consider `CCCCCC(=O)OCC(C)(C)C(=O)SCCOP(=O)(NCc1ccccc1)OCC1O[C@@H](n2cnc3c(=O)[nH]c(N)nc32)[C@](C)(O)[C@@H]1O` (stereo partly drawn) [Compound 108], for which the CC50 at 72 h in series [1] was at most 50 µM. This compound displayed an EC50 in series [2] (Hepatitis C virus) of at most 0.25 µM. As for `CCCCCC(=O)OCC(C)(C)C(=O)SCCOP(=O)(NCc1ccccc1)OC[C@H]1O[C@@H](n2cnc3c(OCC)nc(N)nc32)[C@](C)(F)[C@@H]1O` (single isomer, unassigned) [Compound 103 Diastereomer 2], the CC50 in series [3] is over 50 µM. `CCCC(=O)OCC(C)(C)C(=O)SCCOP(=O)(NCc1ccccc1)OCC1O[C@@H](n2cnc3c(=O)[nH]c(N)nc32)[C@](C)(O)[C@@H]1O` (stereo partly drawn) [Compound 107] registered a half-maximal cytotoxic concentration (CC50) at 72 h in series [1] of at most 50 µM. The EC50 in series [2] (Hepatitis C virus) is at most 0.25 µM. For the same compound, in series [4] (simulated gastric fluid containing pepsin), the “Stability SGF” value is reported as “+++ (50<+++<100)”. Further, the “Stability SIF” value in series [4] (simulated intestinal fluid containing pancreatin) is reported as “+ (+≦25)”. In turn, `CCCC(=O)OCC(C)(C)C(=O)SCCOP(=O)(NCc1ccccc1)OC[C@H]1O[C@@H](n2cnc3c(OCC)nc(N)nc32)[C@](C)(F)[C@@H]1O` (stereo partly drawn) [Compound 102] came in with a CC50 at 72 h in series [1] of at most 50 µM. Besides, the concentration for a half-maximal effect (EC50) in series [2] (Hepatitis C virus) is at most 0.25 µM. In the same order, the values of `CCOc1nc(N)nc2c1ncn2[C@@H]1OC(COP(=O)(NCc2ccccc2)OCCSC(=O)C(C)(C)COC(=O)C(C)C)[C@@H](O)[C@@]1(C)F` (stereo partly drawn) [Compound 104] are at most 50 µM and at most 0.25 µM. In the same order, the values of `CCOc1nc(N)nc2c1ncn2[C@@H]1O[C@H](COP(=O)(NCc2ccccc2)OCCSC(=O)C(C)(C)COC(C)=O)[C@@H](O)[C@@]1(C)F` (stereo partly drawn) [Compound 101] are at most 50 µM and at most 0.25 µM. In the same order, the values of `CCOc1nc(N)nc2c1ncn2[C@@H]1O[C@H](COP(=O)(NCc2ccccc2)OCCSC(=O)C(C)(C)COC(C)=O)[C@@H](O)[C@@]1(C)F` (single isomer, unassigned) [Compound 101 Diastereomer 1] are at most 50 µM and at most 0.25 µM.

As to `CCCCCC(=O)OCC(C)(C)C(=O)SCCOP(=O)(NCc1ccccc1)OC[C@H]1O[C@@H](n2cnc3c(OCC)nc(N)nc32)[C@](C)(F)[C@@H]1O` (stereo partly drawn) [Compound 103], in series [1], the CC50 at 72 h was over 50 µM. Further, the 50% effective concentration (EC50) in series [2] (Hepatitis C virus) is at most 0.25 µM. `CCOc1nc(N)nc2c1ncn2[C@@H]1O[C@H](COP(=O)(NCc2ccccc2)OCCSC(=O)C(C)(C)COC(C)=O)[C@@H](O)[C@@]1(C)F` (single isomer, unassigned) [Compound 101 Diastereomer 2] showed a half-maximal effective concentration (EC50) in series [2] of at most 0.25 µM.

In turn, `CCCCCC(=O)OCC(C)(C)C(=O)SCCOP(=O)(NCc1ccccc1)OC[C@H]1O[C@@H](n2cnc3c(OCC)nc(N)nc32)[C@](C)(F)[C@@H]1O` (single isomer, unassigned) [Compound 103 Diastereomer 1] showed a CC50 at 72 h in series [1] of over 50 µM. In series [2] (Hepatitis C virus), this compound yielded a half-maximal effective concentration (EC50) of at most 0.25 µM.
